What follows are compounds tested on Respiratory syncytial virus (RSV) strain A2 (assay: RSV antiviral assay (HEp-2, 96 well)). Conditions: human respiratory syncytial virus, HEp-2, 96 h, read-out: EC50 RSV HEP2 96, HEp-2 cells, RSV A2, MOI=4, 4 days, 96 well; Table 3.
Type: cell-based

| SMILES | EC50 |
| --- | --- |
| CCCCCCOC(=O)[C@H](Cc1ccccc1)NP(=O)(OC[C@H]1O[C@@](C#N)(c2ccc3c(N)ncnn23)[C@H](O)[C@@H]1O)Oc1ccc(C(C)(C)C)cc1 (stereo partly drawn) [Example 119, hexyl ((((2R,3S,4R,5R)-5-(4-aminopyrrolo[2,1-f][1,2,4]triazin-7-yl)-5-cyano-3,4-dihydroxytetrahydrofuran-2-yl)methoxy)(4-(tert-butyl)phenoxy)phosphoryl)-L-phenylalaninate] | 559 nM |
| CCC(=O)O[C@H]1[C@@H](OC(=O)CC)[C@](C#N)(c2ccc3c(N)ncnn23)O[C@@H]1CO[P@@](=O)(N[C@@H](C)C(=O)OCC(C)(C)OC)Oc1ccccc1 [Example 169, (2R,3R,4R,5R)-2-(4-aminopyrrolo[2,1-f][1,2,4]triazin-7-yl)-2-cyano-5-((((S)—(((S)-1-(2-methoxy-2-methylpropoxy)-1-oxopropan-2-yl)amino)(phenoxy)phosphoryl)oxy)methyl)tetrahydrofuran-3,4-diyl Dipropionate] | 62.9 nM |
| CCC(C)(C)CCOC(=O)[C@H](C)NP(=O)(OC[C@H]1O[C@@](C#N)(c2ccc3c(N)ncnn23)[C@H](O)[C@@H]1O)Oc1ccccc1 (stereo partly drawn) [Intermediate S4, 3,3-dimethylpentyl ((((2R,3S,4R,5R)-5-(4-aminopyrrolo[2,1-f][1,2,4]triazin-7-yl)-5-cyano-3,4-dihydroxytetrahydrofuran-2-yl)methoxy)(phenoxy)phosphoryl)-L-alaninate] | 14.9 nM |
| CCC(CC)COC(=O)[C@H](C)NP(=O)(OC[C@H]1O[C@@](C#N)(c2ccc3c(N)ncnn23)[C@H](OC(=O)C(C)C)[C@@H]1OC(=O)C(C)C)Oc1ccc2ccccc2c1 (stereo partly drawn) [Example 69a, [(2R,3R,4R,5R)-5-(4-aminopyrrolo[2,1-f][1,2,4]triazin-7-yl)-5-cyano-2-[[[[(1S)-2-(2-ethylbutoxy)-1-methyl-2-oxo-ethyl]amino]-(2-naphthyloxy)phosphoryl]oxymethyl]-4-(2-methylpropanoyloxy)tetrahydrofuran-3-yl] 2-methylpropanoate] | 22.1 nM |
| CCCCCCOC(=O)[C@H](C)NP(=O)(OC[C@H]1O[C@@](C#N)(c2ccc3c(N)ncnn23)[C@H](O)[C@@H]1O)Oc1ccc(C(C)(C)C)cc1 (stereo partly drawn) [Example 120, hexyl ((((2R,3S,4R,5R)-5-(4-aminopyrrolo[2,1-f][1,2,4]triazin-7-yl)-5-cyano-3,4-dihydroxytetrahydrofuran-2-yl)methoxy)(4-(tert-butyl)phenoxy)phosphoryl)-L-alaninate] | 73.9 nM |
| CC(C)C(=O)O[C@H]1[C@@H](OC(=O)C(C)C)[C@](C#N)(c2ccc3c(N)ncnn23)O[C@@H]1COP(=O)(N[C@@H](C)C(=O)OCCC(C)(C)C)Oc1ccc(C(C)(C)C)cc1 (stereo partly drawn) [Example 62, [(2R,3R,4R,5R)-5-(4-aminopyrrolo[2,1-f][1,2,4]triazin-7-yl)-2-[[(4-tert-butylphenoxy)-[[(1S)-2-(3,3-dimethylbutoxy)-1-methyl-2-oxo-ethyl]amino]phosphoryl]oxymethyl]-5-cyano-4-(2-methylpropanoyloxy)tetrahydrofuran-3-yl] 2-methylpropanoate] | 70.6 nM |
| CCOCCOCCOC(=O)[C@H](C)NP(=O)(OC[C@H]1O[C@@](C#N)(c2ccc3c(N)ncnn23)[C@H](O)[C@@H]1O)Oc1ccc(C(C)(C)C)cc1 (stereo partly drawn) [Example 112, 2-(2-ethoxyethoxy)ethyl ((((2R,3S,4R,5R)-5-(4-aminopyrrolo[2,1-f][1,2,4]triazin-7-yl)-5-cyano-3,4-dihydroxytetrahydrofuran-2-yl)methoxy)(4-(tert-butyl)phenoxy)phosphoryl)-L-alaninate] | 560 nM |
| C[C@H](NP(=O)(OC[C@H]1O[C@@](C#N)(c2ccc3c(N)ncnn23)[C@H](O)[C@@H]1O)Oc1ccc(C2CC2)cc1)C(=O)OC1CCC1 (stereo partly drawn) [Example 51a, cyclobutyl (2S)-2-[[[(2R,3S,4R,5R)-5-(4-aminopyrrolo[2,1-f][1,2,4]triazin-7-yl)-5-cyano-3,4-dihydroxy-tetrahydrofuran-2-yl]methoxy-(cyclopropylphenoxy)phosphoryl]amino]propanoate] | 66.1 nM |
| CCC(CC)COC(=O)[C@H](C)NP(=O)(OC[C@H]1O[C@@](C#N)(c2ccc3c(N)ncnn23)[C@H](OC(=O)C(C)C)[C@@H]1OC(=O)C(C)C)Oc1cccc(C(C)(C)C)c1 (stereo partly drawn) [Example 91, [(2R,3R,4R,5R)-5-(4-aminopyrrolo[2,1-f][1,2,4]triazin-7-yl)-2-[[(3-tert-butylphenoxy)-[[(1S)-2-(2-ethylbutoxy)-1-methyl-2-oxo-ethyl]amino]phosphoryl]oxymethyl]-5-cyano-4-(2-methylpropanoyloxy)tetrahydrofuran-3-yl] 2-methylpropanoate] | 194 nM |
| CC(C)C(=O)O[C@H]1[C@@H](OC(=O)C(C)C)[C@](C#N)(c2ccc3c(N)ncnn23)O[C@@H]1COP(=O)(N[C@@H](C)C(=O)OC1CCCCCCC1)Oc1ccc(C(C)(C)C)cc1 (single isomer, unassigned) [Example 77a] | 194 nM |
| CCC(C)(C)COC(=O)[C@H](C)NP(=O)(OC[C@H]1O[C@@](C#N)(c2ccc3c(N)ncnn23)[C@H](OC(=O)C(C)C)[C@@H]1OC(=O)C(C)C)Oc1ccccc1 (stereo partly drawn) [Example 114, (2R,3R,4R,5R)-2-(4-aminopyrrolo[2,1-f][1,2,4]triazin-7-yl)-2-cyano-5-((((((S)-1-(2,2-dimethylbutoxy)-1-oxopropan-2-yl)amino)(phenoxy)phosphoryl)oxy)methyl)tetrahydrofuran-3,4-diyl bis(2-methylpropanoate)] | 61 nM |
| COC(C)(C)COC(=O)[C@H](C)N[P@](=O)(OC[C@H]1O[C@@](C#N)(c2ccc3c(N)ncnn23)[C@H](OC(=O)CC(C)C)[C@@H]1OC(=O)CC(C)C)Oc1ccccc1 [Example 168, (2R,3R,4R,5R)-2-(4-aminopyrrolo[2,1-f][1,2,4]triazin-7-yl)-2-cyano-5-((((S)—(((S)-1-(2-methoxy-2-methylpropoxy)-1-oxopropan-2-yl)amino)(phenoxy)phosphoryl)oxy)methyl)tetrahydrofuran-3,4-diyl bis(3-methylbutanoate)] | 111 nM |
| CCC(C)(C)COC(=O)[C@H](C)NP(=O)(OC[C@H]1O[C@@](C#N)(c2ccc3c(N)ncnn23)[C@H](O)[C@@H]1O)Oc1ccccc1 (stereo partly drawn) [Intermediate D9, 2,2-dimethylbutyl ((((2R,3S,4R,5R)-5-(4-aminopyrrolo[2,1-f][1,2,4]triazin-7-yl)-5-cyano-3,4-dihydroxytetrahydrofuran-2-yl)methoxy)(phenoxy)phosphoryl)-L-alaninate] | 65.4 nM |
| CCC(C)(C)CCOC(=O)[C@H](C)NP(=O)(OC[C@H]1O[C@@](C#N)(c2ccc3c(N)ncnn23)[C@H](OC(=O)C(C)C)[C@@H]1OC(=O)C(C)C)Oc1ccccc1 (stereo partly drawn) [Example 74, [(2R,3R,4R,5R)-5-(4-aminopyrrolo[2,1-f][1,2,4]triazin-7-yl)-5-cyano-2-[[[[(1S)-2-(3,3-dimethylpentoxy)-1-methyl-2-oxo-ethyl]amino]-phenoxy-phosphoryl]oxymethyl]-4-(2-methylpropanoyloxy)tetrahydrofuran-3-yl] 2-methylpropanoate] | 131 nM |
| CC(=O)O[C@H]1[C@@H](OC(C)=O)[C@](C#N)(c2ccc3c(N)ncnn23)O[C@@H]1COP(=O)(N[C@@H](C)C(=O)OC1CCC1)Oc1ccc(C2CC2)cc1 (single isomer, unassigned) [Example 53a] | 38.1 nM |
| C[C@H](NP(=O)(OC[C@H]1O[C@@](C#N)(c2ccc3c(N)ncnn23)[C@H](O)[C@@H]1O)Oc1ccc(C(C)(C)C)cc1)C(=O)OC1CCCCCCC1 (stereo partly drawn) [Example 73, cyclooctyl (2S)-2-[[[(2R,3S,4R,5R)-5-(4-aminopyrrolo[2,1-f][1,2,4]triazin-7-yl)-5-cyano-3,4-dihydroxy-tetrahydrofuran-2-yl]methoxy-(4-tert-butylphenoxy)phosphoryl]amino]propanoate] | 552 nM |
| CC(C)CC(=O)O[C@H]1[C@@H](OC(=O)CC(C)C)[C@](C#N)(c2ccc3c(N)ncnn23)O[C@@H]1COP(=O)(N[C@@H](C)C(=O)OC1CCC1)Oc1ccccc1 (stereo partly drawn) [Example 109, (2R,3R,4R,5R)-2-(4-aminopyrrolo[2,1-f][1,2,4]triazin-7-yl)-2-cyano-5-((((((S)-1-cyclobutoxy-1-oxopropan-2-yl)amino)(phenoxy)phosphoryl)oxy)methyl)tetrahydrofuran-3,4-diyl bis(3-methylbutanoate)] | 43.5 nM |
| COC(C)(C)COC(=O)[C@H](C)NP(=O)(OC[C@H]1O[C@@](C#N)(c2ccc3c(N)ncnn23)[C@H](O)[C@@H]1O)Oc1ccc(C(C)(C)C)cc1 (stereo partly drawn) [Example 111, 2-methoxy-2-methylpropyl ((((2R,3S,4R,5R)-5-(4-aminopyrrolo[2,1-f][1,2,4]triazin-7-yl)-5-cyano-3,4-dihydroxytetrahydrofuran-2-yl)methoxy)(4-(tert-butyl)phenoxy)phosphoryl)-L-alaninate] | 846 nM |

Same assay, conditions: read-out: EC50 RSV HEP2 96; HEp-2 cells, RSV A2, MOI=4, 4 days, 96 well; Table 3

| SMILES | EC50 |
| --- | --- |
| CC(C)C(=O)O[C@H]1[C@@H](OC(=O)C(C)C)[C@](C#N)(c2ccc3c(N)ncnn23)O[C@@H]1COP(=O)(N[C@@H](C)C(=O)O[C@H]1CC[C@H](C(F)(F)F)CC1)Oc1ccc(C(C)(C)C)cc1 (single isomer, unassigned) [Example 85b] | 80.5 nM |
| CCOC(=O)[C@H](C)NP(=O)(OC[C@H]1O[C@@](C#N)(c2ccc3c(N)ncnn23)[C@H](O)[C@@H]1O)Oc1ccc(C(C)C)cc1 (some centres unmarked) [Example 63b] | 98.6 nM |
| CC(C)C(=O)O[C@H]1[C@@H](OC(=O)C(C)C)[C@](C#N)(c2ccc3c(N)ncnn23)O[C@@H]1COP(=O)(N[C@@H](C)C(=O)OC1CCCCCCC1)Oc1ccc(C(C)(C)C)cc1 (single isomer, unassigned) [Example 77b] | 198 nM |
| CC(C)C(=O)O[C@H]1[C@@H](OC(=O)C(C)C)[C@](C#N)(c2ccc3c(N)ncnn23)O[C@@H]1COP(=O)(N[C@@H](C)C(=O)OCCC(C)(C)C)Oc1ccccc1 (single isomer, unassigned) [Example 56a] | 35.5 nM |
| C[C@H](NP(=O)(OC[C@H]1O[C@@](C#N)(c2ccc3c(N)ncnn23)[C@H](O)[C@@H]1O)Oc1ccc(C2CC2)cc1)C(=O)OC1CCC1 (stereo partly drawn) [Example 51b, cyclobutyl (2S)-2-[[[(2R,3S,4R,5R)-5-(4-aminopyrrolo[2,1-f][1,2,4]triazin-7-yl)-5-cyano-3,4-dihydroxy-tetrahydrofuran-2-yl]methoxy-(cyclopropylphenoxy)phosphoryl]amino]propanoate] | 86.8 nM |
